Reference: paper PMC5520691, “An enhanced bioluminescence-based Annexin V probe for apoptosis detection in vitro and in vivo” (Cell Death & Disease, 2017)
pKd: −log10 of the molar value.

Target: T1, ArFP (Annexin V-Renilla luciferase RLuc8 fusion protein) (Homo sapiens, UniProt P08758)
T1 construct: gene ANXA5; Annexin V fused N-terminal to the RLuc8 reporter (Renilla reniformis luciferase mutant) via a short linker (GGSGGS by the primers); N-terminal 6xHis tag, pET-30 Xa/LIC, E. coli T7 Express, Ni-NTA; primers cover the Annexin V start (ATGGCACAGGTTCTC, MAQVL) and end (CGEDD)
T1 sequence (P08758 1-320): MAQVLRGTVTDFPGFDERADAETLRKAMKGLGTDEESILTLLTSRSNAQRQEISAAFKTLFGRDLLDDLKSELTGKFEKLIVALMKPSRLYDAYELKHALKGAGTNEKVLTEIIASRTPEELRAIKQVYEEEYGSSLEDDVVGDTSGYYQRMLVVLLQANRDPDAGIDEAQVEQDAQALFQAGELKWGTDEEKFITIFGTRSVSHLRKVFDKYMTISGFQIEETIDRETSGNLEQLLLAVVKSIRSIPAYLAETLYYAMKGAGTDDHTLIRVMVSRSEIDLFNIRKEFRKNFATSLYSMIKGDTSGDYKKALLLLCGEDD
Experiment: isothermal titration calorimetry, vesicles titrated into protein, independent binding model
Conditions: read-out: Binding affinity for PS (KD)

A pKd of 4.68 was found for `CCCCCCCC/C=C\CCCCCCCC(=O)O[C@H](COC(=O)CCCCCCCCCCCCCCC)COP(=O)(O)OC[C@H](N)C(=O)O` [POPS, 1-palmitoyl-2-oleoyl-sn-glycero-3-[phospho-L-serine]] in this work.
